Source: US9085531B2 (priority 2004, dated 2015)
Counter-ions that a name gives are not always drawn.

Experiments:
[1] = system: tetrabenazine-induced exploratory loss and ptosis in mice; assay: Tetrabenazine assay; details: mouse, in vivo

With `CN1Cc2cc(-c3cccnn3)ccc2C(c2cc3ccccc3s2)C1` (stereo not shown) (as salt: maleate) the melting point was 100 to 104 °C.
With `CN1Cc2c(N)cccc2C(c2ccccc2)C1` (stereo not shown) [Nomifensine] the “activity in the tetrabenazine assay” value [1] was “potent biological activity”.
Molecule `CN1Cc2ccccc2C(C2=Cc3ccccc3CCC2)C1` (stereo not shown) (as salt: maleate) has a melting point of 178 to 180 °C.
With `COC(=O)C(c1ccccc1)C1CCCCN1.Cl` (stereo not shown) [Ritalin®] the “activity in the tetrabenazine assay” value [1] was “potent activity”.
